Reference: patent US6770596B1, “Fused tricyclic compounds, process for their preparation, and herbicidal compositions containing them” (Ishihara Sangyo Kaisha Ltd., priority 2002, dated 2004)

What was measured:
Assay type in all cases: in vivo
[1] = test system: redroot pigweed (Amaranthus retroflexus, AMR); assay: Pre-emerge test, redroot pigweed; settings: 250 g ai/ha, 14 days after application, rating scale 0-100 (0 no damage, 100 complete death)
Procedure, shortened: (§1)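 Greenhouse pre-emergence screen: track-sprayer application of compounds in acetone at 187 l/ha, rates 8 g ai/ha to 1000 g ai/ha, one day after planting in sandy loam pots. Damage scored at 14 days, 0 (none) to 100 (all plants dead).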

[2] = test system: common ragweed (Ambrosia artemisiifolia L., AML); assay: Post-emerge test, common ragweed; settings: 250 g ai/ha, 14 days after application, rating scale 0-100 (0 no damage, 100 complete death)
Procedure, shortened: (§2)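 Seeds were planted in 10 cm pots of sandy loam soil mix 8-21 days ahead. Once the plants reached the 2-3 leaf stage, the compound was sprayed at 8-1000 g ai/ha (acetone, 187 l/ha, 0.25% v/v non-ionic surfactant). Damage was rated 0-100 after 14 days.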

[3] = test system: field corn (Zea mays L., var. Dekalb 535, CORN); assay: Pre-emerge test, crop damage field corn; settings: pre-emerge, 250 g ai/ha, 14 days after application, rating scale 0-100 (0 no damage, 100 complete death)
Procedure, shortened: (§3)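 Seeds planted 1 day pre-application in sandy loam soil mix; acetone solutions sprayed at 8 to 1000 g ai/ha (187 l/ha, flat fan nozzle, track sprayer). 14 d later, visual damage scored on a 0–100 scale.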

[4] = test system: upland rice (Oryza sp., var.Tebonnet, RICE); assay: Post-emerge test, crop damage upland rice; settings: post-emerge, 250 g ai/ha, 14 days after application, rating scale 0-100 (0 no damage, 100 complete death)
Procedure, shortened: as §2

[5] = test system: soybean (Glycine max L., var. Pella 86, SOY); assay: Pre-emerge test, crop damage soybean; settings: pre-emerge, 250 g ai/ha, 14 days after application, rating scale 0-100 (0 no damage, 100 complete death)
Procedure, shortened: as §3

[6] = test system: large crabgrass (Digitaria sanguinalis, DIS); assay: Pre-emerge test, large crabgrass; settings: 250 g ai/ha, 14 days after application, rating scale 0-100 (0 no damage, 100 complete death)
Procedure, shortened: as §1

[7] = test system: velvetleaf (Abutilon theophrasti, ABT); assay: Pre-emerge test, velvetleaf; settings: 250 g ai/ha, 14 days after application, rating scale 0-100 (0 no damage, 100 complete death)
Procedure, shortened: as §1

[8] = test system: lambsquarters (Chenopodium album, CHA); assay: Pre-emerge test, lambsquarters; settings: 250 g ai/ha, 14 days after application, rating scale 0-100 (0 no damage, 100 complete death)
Procedure, shortened: as §1

[9] = test system: ivyleaf morningglory (Ipomoea hederacea, IPH); assay: Pre-emerge test, ivyleaf morningglory; settings: 250 g ai/ha, 14 days after application, rating scale 0-100 (0 no damage, 100 complete death)
Procedure, shortened: as §1

[10] = test system: lambsquarters (Chenopodium album, CHA); assay: Post-emerge test, lambsquarters; settings: 250 g ai/ha, 14 days after application, rating scale 0-100 (0 no damage, 100 complete death)
Procedure, shortened: as §2

[11] = test system: johnsongrass (Sorghum halepense, SOH); assay: Pre-emerge test, johnsongrass; settings: 250 g ai/ha, 14 days after application, rating scale 0-100 (0 no damage, 100 complete death)
Procedure, shortened: as §1

[12] = test system: sicklepod (Cassia obtusifolia, CAO); assay: Post-emerge test, sicklepod; settings: 250 g ai/ha, 14 days after application, rating scale 0-100 (0 no damage, 100 complete death)
Procedure, shortened: as §2

[13] = test system: upland rice (Oryza sp., var.Tebonnet, RICE); assay: Pre-emerge test, crop damage upland rice; settings: pre-emerge, 250 g ai/ha, 14 days after application, rating scale 0-100 (0 no damage, 100 complete death)
Procedure, shortened: as §3

[14] = test system: cocklebur (Xanthium strumariunt, XAS); assay: Post-emerge test, cocklebur; settings: 250 g ai/ha, 14 days after application, rating scale 0-100 (0 no damage, 100 complete death)
Procedure, shortened: as §2

[15] = test system: redroot pigweed (Amaranthus retroflexus, AMR); assay: Post-emerge test, redroot pigweed; settings: 250 g ai/ha, 14 days after application, rating scale 0-100 (0 no damage, 100 complete death)
Procedure, shortened: as §2

[16] = test system: velvetleaf (Abutilon theophrasti, ABT); assay: Post-emerge test, velvetleaf; settings: 250 g ai/ha, 14 days after application, rating scale 0-100 (0 no damage, 100 complete death)
Procedure, shortened: as §2

[17] = test system: wheat (Triticum aestivum); assay: Post-emerge test, crop damage wheat; settings: post-emerge, 250 g ai/ha, 14 days after application, rating scale 0-100 (0 no damage, 100 complete death)
Procedure, shortened: as §2

[18] = test system: ivyleaf morningglory (Ipomoea hederacea, IPH); assay: Post-emerge test, ivyleaf morningglory; settings: 250 g ai/ha, 14 days after application, rating scale 0-100 (0 no damage, 100 complete death)
Procedure, shortened: as §2

[19] = test system: common ragweed (Ambrosia artemisiifolia L., AML); assay: Pre-emerge test, common ragweed; settings: 250 g ai/ha, 14 days after application, rating scale 0-100 (0 no damage, 100 complete death)
Procedure, shortened: as §1

[20] = test system: cocklebur (Xanthium strumariunt, XAS); assay: Pre-emerge test, cocklebur; settings: 250 g ai/ha, 14 days after application, rating scale 0-100 (0 no damage, 100 complete death)
Procedure, shortened: as §1

[21] = test system: wheat (Triticum aestivum); assay: Pre-emerge test, crop damage wheat; settings: pre-emerge, 250 g ai/ha, 14 days after application, rating scale 0-100 (0 no damage, 100 complete death)
Procedure, shortened: as §3

[22] = test system: large crabgrass (Digitaria sanguinalis, DIS); assay: Post-emerge test, large crabgrass; settings: 250 g ai/ha, 14 days after application, rating scale 0-100 (0 no damage, 100 complete death)
Procedure, shortened: as §2

[23] = test system: barnyardgrass (Echinachloa crus-galli, ECC); assay: Post-emerge test, barnyardgrass; settings: 250 g ai/ha, 14 days after application, rating scale 0-100 (0 no damage, 100 complete death)
Procedure, shortened: as §2

[24] = test system: green foxtail (Setaria viridis, SEV); assay: Post-emerge test, green foxtail; settings: 250 g ai/ha, 14 days after application, rating scale 0-100 (0 no damage, 100 complete death)
Procedure, shortened: as §2

[25] = test system: green foxtail (Setaria viridis, SEV); assay: Pre-emerge test, green foxtail; settings: 250 g ai/ha, 14 days after application, rating scale 0-100 (0 no damage, 100 complete death)
Procedure, shortened: as §1

[26] = test system: soybean (Glycine max L., var. Pella 86, SOY); assay: Post-emerge test, crop damage soybean; settings: post-emerge, 250 g ai/ha, 14 days after application, rating scale 0-100 (0 no damage, 100 complete death)
Procedure, shortened: as §2

[27] = test system: barnyardgrass (Echinachloa crus-galli, ECC); assay: Pre-emerge test, barnyardgrass; settings: 250 g ai/ha, 14 days after application, rating scale 0-100 (0 no damage, 100 complete death)
Procedure, shortened: as §1

[28] = test system: field corn (Zea mays L., var. Dekalb 535, CORN); assay: Post-emerge test, crop damage field corn; settings: post-emerge, 250 g ai/ha, 14 days after application, rating scale 0-100 (0 no damage, 100 complete death)
Procedure, shortened: as §2

[29] = test system: johnsongrass (Sorghum halepense, SOH); assay: Post-emerge test, johnsongrass; settings: 250 g ai/ha, 14 days after application, rating scale 0-100 (0 no damage, 100 complete death)
Procedure, shortened: as §2

[30] = test system: sicklepod (Cassia obtusifolia, CAO); assay: Pre-emerge test, sicklepod; settings: 250 g ai/ha, 14 days after application, rating scale 0-100 (0 no damage, 100 complete death)
Procedure, shortened: as §1

Structure (SMILES) | Pre-emerge Herbicidal Activity AMR (phytotoxicity rating) [1] | Post-emerge Herbicidal Activity AML (phytotoxicity rating) [2] | Pre-emerge crop damage CORN (phytotoxicity rating) [3] | Post-emerge crop damage RICE (phytotoxicity rating) [4] | Pre-emerge crop damage SOY (phytotoxicity rating) [5] | Pre-emerge Herbicidal Activity DIS (phytotoxicity rating) [6] | Pre-emerge Herbicidal Activity ABT (phytotoxicity rating) [7] | Pre-emerge Herbicidal Activity CHA (phytotoxicity rating) [8] | Pre-emerge Herbicidal Activity IPH (phytotoxicity rating) [9] | Post-emerge Herbicidal Activity CHA (phytotoxicity rating) [10] | Pre-emerge Herbicidal Activity SOH (phytotoxicity rating) [11] | Post-emerge Herbicidal Activity CAO (phytotoxicity rating) [12] | Pre-emerge crop damage RICE (phytotoxicity rating) [13] | Post-emerge Herbicidal Activity XAS (phytotoxicity rating) [14] | Post-emerge Herbicidal Activity AMR (phytotoxicity rating) [15] | Post-emerge Herbicidal Activity ABT (phytotoxicity rating) [16] | Post-emerge crop damage WHEAT (phytotoxicity rating) [17] | Post-emerge Herbicidal Activity IPH (phytotoxicity rating) [18] | Pre-emerge Herbicidal Activity AML (phytotoxicity rating) [19] | Pre-emerge Herbicidal Activity XAS (phytotoxicity rating) [20] | other results
CC(C)C1C(=O)Nc2c(N3C(=O)C4=C(CCCC4)C3=O)c(F)cc3c2N1C(=O)CO3 (stereo not drawn) [1-78] | 20 | 70 | 0 | 60 | 0 | 0 | 10 | 70 | 25 | 99 | 0 | 0 | 0 | 80 | 60 | 0 | 50 | 75 | 0 | 0 | Pre-emerge crop damage WHEAT (phytotoxicity rating) [21]: 0; Post-emerge Herbicidal Activity DIS (phytotoxicity rating) [22]: 0; Post-emerge Herbicidal Activity ECC (phytotoxicity rating) [23]: 0; Post-emerge Herbicidal Activity SEV (phytotoxicity rating) [24]: 0; Pre-emerge Herbicidal Activity SEV (phytotoxicity rating) [25]: 0; Post-emerge crop damage SOY (phytotoxicity rating) [26]: 10; Pre-emerge Herbicidal Activity ECC (phytotoxicity rating) [27]: 0; Post-emerge crop damage CORN (phytotoxicity rating) [28]: 0; Post-emerge Herbicidal Activity SOH (phytotoxicity rating) [29]: 0; Pre-emerge Herbicidal Activity CAO (phytotoxicity rating) [30]: 15
Cn1nc(-c2c(F)cc3c4c2NC(=O)C(Cl)N4C(=O)CO3)c(Cl)c1OC(F)F (stereo not drawn) [1-79] | 100 | 80 | 30 | 0 | 40 | 80 | 75 | 100 | 60 | 65 | 50 | 0 | 30 | 0 | 70 | 75 | 0 | 60 | 99 | 65 | Pre-emerge crop damage WHEAT (phytotoxicity rating) [21]: 30; Post-emerge Herbicidal Activity DIS (phytotoxicity rating) [22]: 0; Post-emerge Herbicidal Activity ECC (phytotoxicity rating) [23]: 25; Post-emerge Herbicidal Activity SEV (phytotoxicity rating) [24]: 65; Pre-emerge Herbicidal Activity SEV (phytotoxicity rating) [25]: 15; Post-emerge crop damage SOY (phytotoxicity rating) [26]: 0; Pre-emerge Herbicidal Activity ECC (phytotoxicity rating) [27]: 35; Post-emerge crop damage CORN (phytotoxicity rating) [28]: 0; Post-emerge Herbicidal Activity SOH (phytotoxicity rating) [29]: 0; Pre-emerge Herbicidal Activity CAO (phytotoxicity rating) [30]: 60
